Experiments:
[1] = test system: S. aureus DSM 20231; assay: Bliss interaction score (quartile over a dose matrix) (fitness difference); higher = more antagonism (negative = synergy)
Procedure, shortened: (§1)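 Fitness is OD595 at stationary-phase entry relative to the plate's robust no-drug mean, capped at 1. Single-drug fitness was inferred from combinations. The Bliss score is observed minus product-expected fitness, summarised by quartiles over technical, biological and donor/recipient replicates.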

[2] = test system: S. pneumoniae D39V; assay: as above
Procedure, shortened: as §1

[3] = test system: B. subtilis 168; assay: as above
Procedure, shortened: as §1

[4] = test system: S. aureus Newman; assay: as above
Procedure, shortened: as §1

[5] = test system: S. aureus DSM 20231; assay: fitness (endpoint OD595 vs no drug) (fraction); higher = more growth
Procedure, shortened: (§2)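 In 384-well plates at 37 °C, cultures began at OD595 0.01 in 30 µl, with 55 µl used for S. pneumoniae. OD595 readings every 30 min for 14 h were corrected by the first reading. Fitness divides the stationary-phase transition optical density by the robust mean of no-drug control wells. The result is capped at 1.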

[6] = test system: S. pneumoniae D39V; assay: as above
Procedure, shortened: as §2

[7] = test system: B. subtilis 168; assay: as above
Procedure, shortened: as §2

[8] = test system: S. aureus Newman; assay: as above
Procedure, shortened: as §2
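Wherever Bliss interaction score (quartile over a dose matrix) is given: first quartile when negative (synergy) and third quartile when positive (antagonism).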

Cc1onc(-c2ccccc2)c1C(=O)N[C@@H]1C(=O)N2[C@@H]1SC(C)(C)[C@@H]2C(=O)O [Oxacillin] + CCN(CC)CCOC(=O)c1ccc(N)cc1 [Procaine]
Conditions	Bliss interaction score
[1]	-0.0703
[2]	0.0938
[3]	0.0581
[4]	-0.0416

fitness
Conditions	partner 85.5 µg/mL	partner 171 µg/mL	partner 342 µg/mL
[5], first compound 0.0156 µg/mL	0.782	0.916	0.852
[5], first compound 0.0312 µg/mL	0.64	0.738	0.712
[5], first compound 0.0625 µg/mL	0.443	0.513	0.514
[6], first compound 0.01 µg/mL	≥ 1	≥ 1	0.998
[6], first compound 0.02 µg/mL	0.933	0.932	0.925
[6], first compound 0.04 µg/mL	–	–	0.497
[7], first compound 0.002 µg/mL	0.938	0.932	0.894
[7], first compound 0.004 µg/mL	0.966	0.913	0.911
[7], first compound 0.008 µg/mL	0.963	0.916	0.867
[8], first compound 0.0312 µg/mL	0.686	–	–

fitness, [7], one replicate
Conditions	first compound 0.075 µg/mL	first compound 0.15 µg/mL	first compound 0.3 µg/mL
partner 85.5 µg/mL	0.637	0.0445	0.056
partner 171 µg/mL	0.535	0.0452	0.0565
partner 342 µg/mL	0.577	0.041	0.0536

Cc1onc(-c2ccccc2)c1C(=O)N[C@@H]1C(=O)N2[C@@H]1SC(C)(C)[C@@H]2C(=O)O [Oxacillin] + CN1C2=CC=CC=C2N=C3C1=CC=CC3=O [Pyocyanin]
Conditions	Bliss interaction score
[1]	-0.0528
[2]	0.188
[3]	-0.0582
[4]	-0.0412

Conditions	fitness
[5], first compound 0.0156 µg/mL, partner 1.25 µg/mL	0.761
[5], first compound 0.0156 µg/mL, partner 2.5 µg/mL	0.766
[5], first compound 0.0156 µg/mL, partner 5 µg/mL	0.493
[5], first compound 0.0312 µg/mL, partner 1.25 µg/mL	0.643
[5], first compound 0.0312 µg/mL, partner 2.5 µg/mL	0.635
[5], first compound 0.0312 µg/mL, partner 5 µg/mL	0.468
[5], first compound 0.0625 µg/mL, partner 1.25 µg/mL	0.48
[5], first compound 0.0625 µg/mL, partner 2.5 µg/mL	0.482
[5], first compound 0.0625 µg/mL, partner 5 µg/mL	0.362
[6], first compound 0.01 µg/mL, partner 0.325 µg/mL	≥ 1
[6], first compound 0.01 µg/mL, partner 0.65 µg/mL	≥ 1
[6], first compound 0.01 µg/mL, partner 1.3 µg/mL	0.684
[6], first compound 0.02 µg/mL, partner 0.325 µg/mL	0.988
[6], first compound 0.02 µg/mL, partner 0.65 µg/mL	0.979
[6], first compound 0.02 µg/mL, partner 1.3 µg/mL	0.672
[6], first compound 0.04 µg/mL, partner 0.325 µg/mL	0.722
[6], first compound 0.04 µg/mL, partner 0.65 µg/mL	0.781
[6], first compound 0.04 µg/mL, partner 1.3 µg/mL	0.547
[7], first compound 0.002 µg/mL, partner 1.25 µg/mL	0.93
[7], first compound 0.002 µg/mL, partner 2.5 µg/mL	0.891
[7], first compound 0.002 µg/mL, partner 5 µg/mL	0.768
[7], first compound 0.004 µg/mL, partner 1.25 µg/mL	0.918
[7], first compound 0.004 µg/mL, partner 2.5 µg/mL	0.839
[7], first compound 0.004 µg/mL, partner 5 µg/mL	0.703
[7], first compound 0.008 µg/mL, partner 1.25 µg/mL	0.847
[7], first compound 0.008 µg/mL, partner 2.5 µg/mL	0.79
[7], first compound 0.008 µg/mL, partner 5 µg/mL	0.675
[8], first compound 0.0156 µg/mL, partner 1.25 µg/mL	0.744
[8], first compound 0.0156 µg/mL, partner 2.5 µg/mL	0.683
[8], first compound 0.0156 µg/mL, partner 5 µg/mL	0.424
[8], first compound 0.0312 µg/mL, partner 1.25 µg/mL	0.625
[8], first compound 0.0312 µg/mL, partner 2.5 µg/mL	0.596
[8], first compound 0.0312 µg/mL, partner 5 µg/mL	0.336
[8], first compound 0.0625 µg/mL, partner 5 µg/mL	0.305

fitness, [7], one replicate
Conditions	first compound 0.075 µg/mL	first compound 0.15 µg/mL	first compound 0.3 µg/mL
partner 1.25 µg/mL	0.463	0.0474	0.0657
partner 2.5 µg/mL	0.404	0.0413	0.0539
partner 5 µg/mL	0.145	0.0518	0.0652

Source: the supplement of paper PMC10627819
